Reference: patent publication US20210382058A1, “PATIENT SELECTION FOR TREATMENT OF MYC POSITIVE CANCERS WITH INDENOISOQUINOLINES” (Purdue Research Foundation, priority 2020, published 2021)
Read-outs that look alike come from different tables or passages of the source.

Experiments:
[1] = tested on: MYC protein expression in MCF-7 breast cancer cells; assay: Western blotting of MYC protein level in MCF-7 cells; assay type: cell-based, human; details: Homo sapiens, MCF7; western blotting, MCF-7 cells, 0.5, 1, 2, and 4 μM, 24 hours; read-out: MYC Inhibition
Experimental: MCF-7 cells were incubated with each compound at four concentrations (0.5, 1, 2, and 4 μM) for 24 hours, and the MYC protein levels were measured (FIG. 3A and FIGS. 12 A to 12 F).
Cells were incubated at 37° C. with 5% CO2.
The gels were cut into strips that contained the proteins of interest and transferred to nitrocellulose membrane (I323002, Invitrogen) using an iBlot 2 Dry Transfer Device (Invitrogen). Immunoblotting was carried out according to standard procedures using the ECL detection method. The membrane was hybridized with the following antibodies: monoclonal anti-MYC (1:1000 dilution; rabbit, Cell Signaling Technology), monoclonal anti-GAPDH (1:2000 dilution; rabbit, Cell Signaling Technology).

NCI-60 cancer cell lines = assay: NCI-60 cancer cell line drug screen (GI50, MGM); assay type: cell-based, human; details: Homo sapiens; for mean GI50 across NCI-60 panel (MGM): average of GI50 values across the entire panel of NCI-60 cancer cell lines
Experimental: Cancer cells were incubated with the test compounds at five concentrations ranging from 100 μM to 10 nM for 48 h. […] The approximate average of GI50 values across the entire panel of NCI-60 cancer cell lines for each compound was recorded as the MGM value.

human topoisomerase I = target: T1, human topoisomerase I (Homo sapiens, UniProt P11387); details: relative topoisomerase I inhibition levels, previously determined, six levels (0 - 5, +++++ = 5); cited from earlier work
T1 sequence (P11387 1-765): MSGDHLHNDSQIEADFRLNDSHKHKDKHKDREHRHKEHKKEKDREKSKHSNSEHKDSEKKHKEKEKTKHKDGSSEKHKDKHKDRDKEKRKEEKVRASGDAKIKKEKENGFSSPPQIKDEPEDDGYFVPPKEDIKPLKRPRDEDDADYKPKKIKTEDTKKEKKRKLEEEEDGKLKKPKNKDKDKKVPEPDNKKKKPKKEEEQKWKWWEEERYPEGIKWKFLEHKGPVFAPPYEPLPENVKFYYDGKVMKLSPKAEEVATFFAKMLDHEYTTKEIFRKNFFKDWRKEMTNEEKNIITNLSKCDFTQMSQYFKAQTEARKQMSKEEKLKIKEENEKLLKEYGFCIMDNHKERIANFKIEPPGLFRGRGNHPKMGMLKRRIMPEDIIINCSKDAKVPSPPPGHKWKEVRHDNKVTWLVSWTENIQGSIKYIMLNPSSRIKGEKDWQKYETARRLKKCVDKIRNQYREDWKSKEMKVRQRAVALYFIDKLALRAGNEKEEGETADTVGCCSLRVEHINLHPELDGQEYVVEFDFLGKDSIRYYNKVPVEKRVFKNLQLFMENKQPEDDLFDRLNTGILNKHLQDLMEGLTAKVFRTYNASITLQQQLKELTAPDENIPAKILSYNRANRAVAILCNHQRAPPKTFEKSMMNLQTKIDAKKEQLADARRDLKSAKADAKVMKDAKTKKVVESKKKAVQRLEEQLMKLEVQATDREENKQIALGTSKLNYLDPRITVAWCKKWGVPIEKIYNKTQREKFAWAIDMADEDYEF

[2] = A549, Non-Small Cell Lung Cancer, A549/ATCC, read-out: Antiproliferative Activities [GI50 (μM)]
[3] = CCRF-CEM, Leukemia, CCRF-CEM, read-out: Antiproliferative Activities [GI50 (μM)]
[4] = COLO 205, Colon Cancer, COLO 205, read-out: Antiproliferative Activities [GI50 (μM)]
[5] = EKVX, Non-Small Cell Lung Cancer, EKVX, read-out: Antiproliferative Activities [GI50 (μM)]
[6] = HCC 2998, Colon Cancer, HCC-2998, read-out: Antiproliferative Activities [GI50 (μM)]
[7] = HCT-116, Colon Cancer, HCT-116, read-out: Antiproliferative Activities [GI50 (μM)]
[8] = HL-60, Leukemia, HL-60(TB), read-out: Antiproliferative Activities [GI50 (μM)]
[9] = HOP-62, Non-Small Cell Lung Cancer, HOP-62, read-out: Antiproliferative Activities [GI50 (μM)]
[10] = HOP-92, Non-Small Cell Lung Cancer, HOP-92, read-out: Antiproliferative Activities [GI50 (μM)]
[11] = K562, Leukemia, K-562, read-out: Antiproliferative Activities [GI50 (μM)]
[12] = MOLT-4, Leukemia, MOLT-4, read-out: Antiproliferative Activities [GI50 (μM)]
[13] = NCI-H23, Non-Small Cell Lung Cancer, NCI-H23, read-out: Antiproliferative Activities [GI50 (μM)]
[14] = NCI-H226, Non-Small Cell Lung Cancer, NCI-H226, read-out: Antiproliferative Activities [GI50 (μM)]
[15] = NCI-H322M, Non-Small Cell Lung Cancer, NCI-H322M, read-out: Antiproliferative Activities [GI50 (μM)]
[16] = NCI-H460, Non-Small Cell Lung Cancer, NCI-H460, read-out: Antiproliferative Activities [GI50 (μM)]
[17] = NCI-H522, Non-Small Cell Lung Cancer, NCI-H522, read-out: Antiproliferative Activities [GI50 (μM)]
[18] = RPMI-8226, Leukemia, RPMI-8226, read-out: Antiproliferative Activities [GI50 (μM)]
[19] = Leukemia, SR, read-out: Antiproliferative Activities [GI50 (μM)]

SMILES	minimal effective concentration [1]	GI50 (NCI-60 cancer cell lines; [2])	GI50 (NCI-60 cancer cell lines; [3])	GI50 (NCI-60 cancer cell lines; [4])	GI50 (NCI-60 cancer cell lines; [5])	GI50 (NCI-60 cancer cell lines; [6])	GI50 (NCI-60 cancer cell lines; [7])	GI50 (NCI-60 cancer cell lines; [8])	GI50 (NCI-60 cancer cell lines; [9])	GI50 (NCI-60 cancer cell lines; [10])	GI50 (NCI-60 cancer cell lines; [11])	GI50 (NCI-60 cancer cell lines; [12])	GI50 (NCI-60 cancer cell lines; [13])	GI50 (NCI-60 cancer cell lines; [14])	GI50 (NCI-60 cancer cell lines; [15])	GI50 (NCI-60 cancer cell lines; [16])	GI50 (NCI-60 cancer cell lines; [17])	GI50 (NCI-60 cancer cell lines; [18])	mean GI50 across NCI-60 panel (MGM) (NCI-60 cancer cell lines)	Top1 Inhibiton (human topoisomerase I)	also measured
COc1cc2c3c(n(CCCN4CCN(C)CC4)c(=O)c2cc1OC)-c1cc2c(cc1C3=O)OCO2 [Compound 49]	4 µM	18.7 µM	2.44 µM	10.3 µM	17.7 µM	< 0.01 µM	1.49 µM	19.5 µM	18 µM	19.8 µM	6.49 µM	< 0.01 µM	11.9 µM	13.9 µM	15.6 µM	5.81 µM	15.4 µM	2.39 µM	12000 nM	+ (weak inhibition, +, MYC expression inhibited at 4.0 μM)	
COc1cc2c3c(n(CCCN)c(=O)c2cc1OC)-c1cc2c(cc1C3=O)OCO2 [Compound 45]	2 µM	0.11 µM	< 0.01 µM	0.3 µM		0.1 µM	0.12 µM	0.22 µM	0.06 µM	1.65 µM	0.09 µM	< 0.01 µM	0.13 µM	1.39 µM		0.02 µM	0.07 µM	< 0.01 µM	180 nM	+++ (strong inhibition, +++, MYC expression inhibited at 0.5 to 1.0 μM)	GI50 (NCI-60 cancer cell lines; [19]): < 0.01 µM
COc1cc2c3c(n(CCCN4CCC(N)CC4)c(=O)c2cc1OC)-c1cc2c(cc1C3=O)OCO2 [Compound 48]	4 µM	0.65 µM	0.3 µM	1.14 µM	1.31 µM	0.14 µM	0.12 µM	> 50 µM	0.42 µM		1.59 µM	0.42 µM	0.71 µM	0.66 µM	1.05 µM	0.24 µM	13.1 µM	0.2 µM	1020 nM	+ (weak inhibition, +, MYC expression inhibited at 4.0 μM)	
COc1cc2c3c(n(CCCNCCO)c(=O)c2cc1OC)-c1cc2c(cc1C3=O)OCO2 [Compound 44]	0.5 to 1 µM																				GI50 (NCI-60 cancer cell lines; A549, read-out: Antiproliferative Activities [GI50 (μM)]): 0.03 µM; GI50 (NCI-60 cancer cell lines; CCRF-CEM, read-out: Antiproliferative Activities [GI50 (μM)]): < 0.01 µM; GI50 (NCI-60 cancer cell lines; COLO 205, read-out: Antiproliferative Activities [GI50 (μM)]): 0.38 µM; GI50 (NCI-60 cancer cell lines; EKVX, read-out: Antiproliferative Activities [GI50 (μM)]): 0.26 µM; GI50 (NCI-60 cancer cell lines; HCT-116, read-out: Antiproliferative Activities [GI50 (μM)]): 0.07 µM; GI50 (NCI-60 cancer cell lines; HL-60, read-out: Antiproliferative Activities [GI50 (μM)]): < 0.01 µM; GI50 (NCI-60 cancer cell lines; HOP-62, read-out: Antiproliferative Activities [GI50 (μM)]): 0.01 µM; GI50 (NCI-60 cancer cell lines; HOP-92, read-out: Antiproliferative Activities [GI50 (μM)]): 0.83 µM; GI50 (NCI-60 cancer cell lines; K562, read-out: Antiproliferative Activities [GI50 (μM)]): 0.02 µM; GI50 (NCI-60 cancer cell lines; MOLT-4, read-out: Antiproliferative Activities [GI50 (μM)]): < 0.01 µM; GI50 (NCI-60 cancer cell lines; NCI-H23, read-out: Antiproliferative Activities [GI50 (μM)]): < 0.01 µM; GI50 (NCI-60 cancer cell lines; NCI-H226, read-out: Antiproliferative Activities [GI50 (μM)]): 0.21 µM; GI50 (NCI-60 cancer cell lines; NCI-H322M, read-out: Antiproliferative Activities [GI50 (μM)]): 0.05 µM; GI50 (NCI-60 cancer cell lines; NCI-H460, read-out: Antiproliferative Activities [GI50 (μM)]): < 0.01 µM; GI50 (NCI-60 cancer cell lines; NCI-H522, read-out: Antiproliferative Activities [GI50 (μM)]): < 0.01 µM; GI50 (NCI-60 cancer cell lines; RPMI-8226, read-out: Antiproliferative Activities [GI50 (μM)]): 0.01 µM; GI50 (NCI-60 cancer cell lines; read-out: Antiproliferative Activities [GI50 (μM)]): < 0.01 µM; IC50 (NCI-60 cancer cell lines; read-out: MGM): 60 nM
COc1cnc2c(c1)C(=O)c1c-2n(CCCN2CCNCC2)c(=O)c2cc(Cl)ccc12 [Compound 1]																				+ (weak inhibition, +, MYC expression inhibited at 4.0 μM)	
CCNCCCn1c2c(c3ccc(F)cc3c1=O)C(=O)c1cc(OC)cnc1-2 [Compound 7]																				++ (medium inhibition, ++, MYC expression inhibited at 2.0 μM, or no clear dose-dependent MYC inhibition)	
COc1cc2c3c(n(CCCNC4=NCCS4)c(=O)c2cc1OC)-c1cc2c(cc1C3=O)OCO2 [Compound 50]	2 µM	< 0.01 µM	< 0.01 µM	< 0.01 µM	2.57 µM	< 0.01 µM	< 0.01 µM	0.29 µM	< 0.01 µM	< 0.01 µM	< 0.01 µM	< 0.01 µM	0.02 µM	0.05 µM	3.18 µM	< 0.01 µM	0.02 µM	0.02 µM	40 nM		GI50 (NCI-60 cancer cell lines; [19]): < 0.01 µM
COc1cnc2c(c1)C(=O)c1c-2n(CCCN2CCNCC2)c(=O)c2cc(F)ccc12 [Compound 8]																				+ (weak inhibition, +, MYC expression inhibited at 4.0 μM)	
COc1cnc2c(c1)C(=O)c1c-2n(CCCN2CCN(C)CC2)c(=O)c2cc(Cl)ccc12 [Compound 4]																				+ (weak inhibition, +, MYC expression inhibited at 4.0 μM)	
